Experiments:
[1] = molecular target: T1, STAT5a (Homo sapiens, UniProt P42229); assay: Competitive fluorescence polarization (FP) assay, STAT5a; format: binding; settings: no reducing agent, 1 h
T1 sequence (P42229 1-794): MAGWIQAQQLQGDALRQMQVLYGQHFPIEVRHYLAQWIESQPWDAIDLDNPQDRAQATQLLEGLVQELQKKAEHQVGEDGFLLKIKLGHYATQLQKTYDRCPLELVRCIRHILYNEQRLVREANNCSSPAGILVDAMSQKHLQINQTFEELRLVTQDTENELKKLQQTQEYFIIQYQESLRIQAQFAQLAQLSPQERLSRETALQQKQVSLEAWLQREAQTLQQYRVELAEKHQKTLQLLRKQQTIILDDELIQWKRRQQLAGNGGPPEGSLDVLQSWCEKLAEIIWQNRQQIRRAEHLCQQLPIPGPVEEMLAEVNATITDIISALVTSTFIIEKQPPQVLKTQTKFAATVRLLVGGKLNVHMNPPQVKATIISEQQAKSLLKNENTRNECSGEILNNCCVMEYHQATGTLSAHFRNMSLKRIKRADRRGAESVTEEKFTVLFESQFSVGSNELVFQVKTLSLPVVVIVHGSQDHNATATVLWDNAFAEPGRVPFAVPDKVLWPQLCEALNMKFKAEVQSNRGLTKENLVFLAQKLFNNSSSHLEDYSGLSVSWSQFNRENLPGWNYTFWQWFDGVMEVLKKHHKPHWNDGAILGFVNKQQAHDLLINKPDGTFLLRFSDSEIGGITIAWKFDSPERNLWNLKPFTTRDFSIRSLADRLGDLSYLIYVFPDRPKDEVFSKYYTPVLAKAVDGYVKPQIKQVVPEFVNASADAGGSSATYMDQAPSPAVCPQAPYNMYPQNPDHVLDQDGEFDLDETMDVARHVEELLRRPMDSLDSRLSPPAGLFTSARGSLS
From the text: (§1) Screening of chemical libraries
(§2) Screening of chemical libraries comprising approximately 5000 known bioactive compounds in fluorescence polarization-based assays against phosphorylation-dependent protein-protein interaction domains, including STAT proteins, has been described.[1] PPADS was purchased from Sigma-Aldrich, and iso-PPADS from Bio-Techne.
(§3) Fluorescence polarization assays
(§4) Competitive fluorescence polarization (FP) assays for STAT1,[2] STAT3,[3] STAT4,[4] STAT5a,[5] STAT5b[6] and STAT6[1] were performed as previously described. Briefly, peptide binding to proteins was analyzed using the following carboxyfluorescein (CF) -labelled pepti des at a concentration of 10 nM: STAT1: 5-CF-GpYDKPHVL-OH, STAT3: 5-CF-GpYLPQTV -NH2, STAT4: 5-CF-GpYLPQNID-OH, STAT5a and STAT5b: 5-CF-GpYLVLDKW-OH, STAT6: 5- […]
CFGp[…]-OH. […] FP was measured using an Infinite F500 plate reader (Tecan) and measurements were converted into percent inhibition according to the binding curve equation. Curves were plotted and best fits calculated using OriginPro […]
Homogenous time-resolved fluorescence (HTRF) assays for STAT3, STAT4, STAT5a and STAT5b were carried out using Cisbio Monoclonal Antibody Anti-6His-Tb Gold as the fluorescence donor (Perkin Elmer) and the corresponding CF-labelled binding peptide as the acceptor. […] The average reading from 3 wells was obtained. […]

[2] = molecular target: T2, STAT5b (Homo sapiens, UniProt P51692); assay: Competitive fluorescence polarization (FP) assay, STAT5b; format: binding; settings: no reducing agent, 1 h
T2 sequence (P51692 1-787): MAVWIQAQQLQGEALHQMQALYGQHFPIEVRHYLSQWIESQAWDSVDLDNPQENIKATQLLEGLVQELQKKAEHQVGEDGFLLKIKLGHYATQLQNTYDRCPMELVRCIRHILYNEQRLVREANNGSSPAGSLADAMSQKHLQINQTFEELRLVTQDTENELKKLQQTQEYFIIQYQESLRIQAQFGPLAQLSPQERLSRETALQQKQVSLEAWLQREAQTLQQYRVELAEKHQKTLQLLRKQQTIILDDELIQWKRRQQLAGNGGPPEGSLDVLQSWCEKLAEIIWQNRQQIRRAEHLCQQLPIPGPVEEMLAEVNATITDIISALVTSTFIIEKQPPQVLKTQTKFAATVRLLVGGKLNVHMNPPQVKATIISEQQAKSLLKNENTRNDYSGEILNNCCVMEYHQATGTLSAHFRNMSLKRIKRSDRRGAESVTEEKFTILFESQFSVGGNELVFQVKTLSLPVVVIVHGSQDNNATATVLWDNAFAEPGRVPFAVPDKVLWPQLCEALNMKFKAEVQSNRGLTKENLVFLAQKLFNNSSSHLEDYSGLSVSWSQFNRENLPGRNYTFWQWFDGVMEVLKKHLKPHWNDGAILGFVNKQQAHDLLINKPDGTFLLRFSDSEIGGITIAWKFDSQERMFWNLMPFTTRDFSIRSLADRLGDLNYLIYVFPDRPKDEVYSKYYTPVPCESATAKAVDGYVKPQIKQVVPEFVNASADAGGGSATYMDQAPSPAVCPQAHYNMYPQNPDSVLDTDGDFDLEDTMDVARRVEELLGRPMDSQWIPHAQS
From the text: as §1, §2, §3, §4
CFGp[…]-OH. Proteins were used at a final concentration representing the approximate Kd value for binding of the corresponding peptide to the protein, namely 65 nM for STAT1, 65 nM for STAT3, 35 nM for STAT4, 125 nM for STAT5a, 65 nM for STAT5b and 75 nM for STAT6. […] FP was measured using an Infinite F500 plate reader (Tecan) and measurements were converted into percent inhibition according to the binding curve equation. Curves were plotted and best fits calculated using OriginPro […]

Cc1nc(/N=N/c2ccc(S(=O)(=O)O)cc2S(=O)(=O)O)c(COP(=O)(O)O)c(C=O)c1O [PPADS, pyridoxalphosphate‐6‐azophenyl‐2',4'‐disulfonic acid]
IC50 [1]: 1500 ± 200 nM
IC50 [2]: 2000 ± 300 nM

Cc1nc(/N=N/c2cc(S(=O)(=O)O)ccc2S(=O)(=O)O)c(COP(=O)(O)O)c(C=O)c1O [iso‐PPADS]
IC50 [1]: 4800 ± 400 nM
IC50 [2]: 1900 ± 100 nM

— article PMC12442245, “Activity Analysis of the P2X Receptor Antagonist PPADS against Signal Transducer and Activator of Transcription Proteins” (Chembiochem, 2025)
